Common to all, as to test: inhibition of tumour cell growth, NCI panel, 48 h
Experiment [1] concerns KM12 colon.
In experiment [2] the test system is HT29 colon.
The subject of experiment [3] is HCT-15 colon.
The test system of experiment [4] is SN12C renal.
Experiment [5] deals with DU-145 prostate.
For experiment [6], the system named is SK-OV-3 ovarian.
In experiment [7] the test system is A549 NSCLC.
Experiment [8] concerns SK-MEL-2 melanoma.
Experiment [9] has as its system SW-620 colon.
For experiment [10], the system named is MOLT-4 leukemia.

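The compound was tested at five concentrations on cells cultured in 96-well plates, with a 48-hour exposure period. Abbreviation: GI50, concentration required for 50% inhibition of growth. Definition used: TGI = concentration required for complete inhibition of growth.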

In the case of `COC(=O)c1ccccc1NC(=O)/C(=N\NC(C)(C)C)C(C#N)c1nc(-c2ccc([N+](=O)[O-])cc2)cs1` (stereo not drawn), the TGI in experiment [1], in experiment [2], in experiment [3], in [4], in experiment [5] and in experiment [6] was more than 100 µM each time. For the same compound, the TGI in experiment [7], in experiment [8], in experiment [9] and in [10] was more than 100 µM throughout.

Turning to `CC1(C)N=C(N)N=C(N)N1c1ccc(F)c(C(F)(F)F)c1`, the GI50 in experiment [1] is 1.81 µM; in experiment [2], 0.363 µM; in [3], 1.58 µM; in experiment [4], 5.13 µM; in experiment [5] it was 3.18 µM; in [6], 10.7 µM. Also, the GI50 in experiment [7] was 0.31 µM; in experiment [8], more than 27.9 µM; in experiment [9], 0.233 µM; in [10], 0.727 µM. The TGI in [1], in [2], in experiment [3], in experiment [4], in experiment [5] and in experiment [6] was more than 100 µM in each case. Moreover, the TGI in experiment [8], in experiment [9] and in experiment [10] was more than 100 µM throughout.

With `O=Cc1ccc(-c2ccc(-c3ccc(C=O)s3)o2)s1`, the TGI in experiment [1], in experiment [2], in experiment [3], in experiment [4], in [5] and in [6] was more than 100 µM each time. Moreover, the TGI in experiment [7], in [8], in experiment [9] and in experiment [10] was more than 100 µM throughout.

With `O=C(Nc1ccc(Br)cc1)Nc1n[nH]c2ccccc12`, the GI50 in experiment [1] is more than 76.4 µM; in experiment [2] it was more than 100 µM; in experiment [3] it was 17.3 µM; in experiment [4], more than 100 µM; in [5] it was more than 60.2 µM; in experiment [6], more than 33.7 µM. Moreover, the GI50 in experiment [7] is more than 62.7 µM; in [8], more than 100 µM; in experiment [9], more than 100 µM; in [10] it was 8.98 µM. Further, the TGI in [1], in experiment [2], in experiment [3], in experiment [4], in experiment [5] and in experiment [6] was more than 100 µM throughout. Also, the TGI in experiment [7], in [8], in experiment [9] and in [10] was more than 100 µM each time.

In the case of `CC(=O)/C=C/C1=C(c2cc3ccccc3s2)c2ccccc2CC1`, the GI50 in experiment [1] was 18.5 µM; in experiment [2] it was 21 µM; in experiment [3], 21.8 µM; in experiment [4], 36.5 µM; in experiment [5] it was 52.8 µM; in experiment [6], 67.9 µM. For the same compound, the GI50 in [7] is 33 µM; in [8], 20 µM; in [9], 32.6 µM; in experiment [10], 13.6 µM. For the same compound, the TGI was 42.2 µM in experiment [1]; more than 100 µM in experiment [2]; 67.3 µM in experiment [3]; more than 100 µM in experiment [4]; more than 100 µM in experiment [5]; more than 100 µM in [6]. Also, the TGI in [7] was more than 100 µM; in experiment [8], 42.2 µM; in [9] it was more than 100 µM; in experiment [10], more than 100 µM.

Consider `O=C1OC(c2ccc(O)c(-c3ccccc3)c2)(c2ccc(O)c(-c3ccccc3)c2)c2c(Cl)c(Cl)c(Cl)c(Cl)c21`, for which the TGI in [1], in experiment [2], in [3], in experiment [4], in experiment [5] and in [6] was more than 100 µM in each case. Further, the TGI in experiment [7], in experiment [8], in [9] and in [10] was more than 100 µM throughout.

Consider `COc1cccc(/C=N\Nc2ccc([N+](=O)[O-])cn2)c1O`, for which the GI50 is 6.04 µM in [1]; 28.8 µM in experiment [2]; 4 µM in [4]; 4.34 µM in experiment [5]; 2.94 µM in experiment [6]; 4.26 µM in experiment [7]. For the same compound, the GI50 was 9.69 µM in experiment [8], 3.94 µM in experiment [9] and 3.43 µM in experiment [10]. In addition, the TGI was 51.5 µM in [1]; more than 100 µM in experiment [2]; 39.7 µM in [3]; 62 µM in [4]; 62.6 µM in experiment [5]; 20.4 µM in [6]. The TGI in [7] is 46.3 µM; in [8], 54.4 µM; in experiment [9] it was more than 100 µM; in experiment [10] it was 16.9 µM.

For `O=C(O)C1C2CC3C(OC(=O)C31)C2Br` (stereo not drawn), the TGI in [1], in experiment [2], in experiment [3], in [4], in experiment [5] and in experiment [6] was more than 100 µM each time. Also, the TGI in [7] is more than 100 µM; in experiment [8] it was more than 100 µM; in experiment [9] it was more than 100 µM; in experiment [10] it was more than 58.1 µM.

As for `COCCOC(=O)C1=C(C)NC2=C(C(=O)CC(c3ccccc3OC)C2)C1c1cccc(O)c1` (stereo not drawn), the GI50 in experiment [1] is 11.5 µM; in experiment [2], 5.38 µM; in experiment [3], 19.8 µM; in [4], 21.7 µM; in experiment [5] it was 23.5 µM; in experiment [6], 7.77 µM. For the same compound, the GI50 in experiment [7] is 13.1 µM; in experiment [8] it was 10.1 µM; in experiment [9] it was 12.5 µM; in experiment [10], 22 µM. The TGI in [1] is 30 µM; in [2], 25.3 µM; in [3] it was more than 61.9 µM; in [4] it was more than 100 µM; in [5], more than 91.9 µM; in experiment [6], 32.5 µM. Also, the TGI in experiment [7] was more than 72.2 µM; in experiment [8] it was 26.7 µM; in [9] it was 33.5 µM; in experiment [10] it was more than 77.6 µM.

On to `O=C1C=C(Nc2ccccc2C(=O)CC(=O)C(=O)Nc2cccc(C(F)(F)F)c2)c2ccccc2C1=O`, for which the TGI in experiment [1] was more than 95.9 µM; in experiment [2], more than 100 µM; in [3], more than 100 µM; in [4], 36.3 µM; in experiment [5] it was more than 100 µM; in [6], more than 100 µM. Also, the TGI in [7] is more than 89.8 µM; in experiment [8], 44.5 µM; in experiment [9], 48.6 µM; in experiment [10], more than 57.9 µM.

Regarding `C(=C1c2ccccc2-c2ccccc21)c1ccccn1`, the GI50 in [1] was 3.6 µM; in [2] it was 3.56 µM; in experiment [3], 6.21 µM; in experiment [4] it was 12.1 µM; in [5], 16.1 µM; in [6], 13.1 µM. For the same compound, the GI50 was 7.69 µM in [7], 12.7 µM in experiment [8], 4.03 µM in experiment [9] and 11.8 µM in experiment [10]. In addition, the TGI in [1] is 14.2 µM; in experiment [2] it was 16.7 µM; in [3], 49.3 µM; in [4], more than 100 µM; in experiment [5], 44.9 µM; in [6], 64.9 µM. Further, the TGI was 49.5 µM in experiment [7], 43 µM in experiment [8], 49.4 µM in experiment [9] and more than 100 µM in experiment [10].

As for `Cn1c(=O)cc2c3c(c(NCCCO)ccc31)C(=O)c1ccccc1-2`, the GI50 in experiment [1] is 6.34 µM; in [2], 2.16 µM; in [3], 3.86 µM; in experiment [4] it was 3.45 µM; in experiment [5], 7.62 µM; in experiment [6], 9.81 µM. Also, the GI50 in [7] is 3.48 µM; in experiment [8], 6.85 µM; in experiment [9], 0.875 µM; in experiment [10], 2.07 µM. Besides, the TGI in experiment [1], in [2], in [3], in experiment [4], in experiment [5] and in experiment [6] was more than 100 µM each time. In addition, the TGI in experiment [7], in experiment [8], in experiment [9] and in experiment [10] was more than 100 µM each time.

Turning to `COc1ccc(-c2n[nH]nc2-c2csc3ccccc23)cc1OC`, the GI50 is 2.28 µM in experiment [1]; 2.78 µM in [2]; 1.67 µM in experiment [3]; 8.8 µM in experiment [4]; 3.77 µM in [5]; 2.37 µM in experiment [6]. Moreover, the GI50 in [7] is 4.52 µM; in experiment [8] it was 1.44 µM; in [9], 3.09 µM; in [10], 3.05 µM. Also, the TGI in [1] was 24.1 µM; in experiment [2] it was 10.6 µM; in experiment [3], 14.7 µM; in [4], 79.9 µM; in [5], more than 100 µM; in experiment [6], 19.3 µM. In addition, the TGI in experiment [7] worked out at 70.9 µM; in experiment [8], 7.65 µM; in experiment [9], 43.9 µM; in [10] it was 27.7 µM.

In the case of `CN1C(=O)CNC(=O)[C@H](NC(=O)c2nc3ccccc3cc2O)CSSC[C@H]1C(=O)NCCc1nc2ccccc2cc1O`, the GI50 in [1] was 0.96 µM; in [2], 3.12 µM; in [3], 20.7 µM; in experiment [4], 22.4 µM; in experiment [5], 5.19 µM; in experiment [6] it was more than 100 µM. The GI50 in [7] was 32.5 µM; in [8], 2.57 µM; in experiment [9], 5.65 µM; in [10] it was 1.4 µM. Further, the TGI in experiment [1] is 47.7 µM; in [2], 16.4 µM; in experiment [3], more than 62.5 µM; in experiment [4], more than 63.4 µM; in [5], 23.2 µM; in experiment [6], more than 100 µM. The TGI is more than 100 µM in experiment [7], 8.47 µM in [8], 35.3 µM in experiment [9] and 14.8 µM in experiment [10].

Values taken from PubChem BioAssay (NCI).
